From the Biogen ADME set (Fang et al. 2023)
≈ marks a conversion by molar mass, not a printed value.

Conditions: for aqueous solubility: pH 6.8

MDR1-MDCK efflux ratio	intrinsic clearance, human liver microsomes [mL/min/kg]	intrinsic clearance, rat liver microsomes [mL/min/kg]	aqueous solubility [µg/mL]	fraction unbound, human plasma	fraction unbound, rat plasma	Compound
86	≤ 4.74	≤ 10.7	76.1 (≈ 199 µM)	–	–	CN1CCN(C(=O)C2(NC(=O)c3ccc(C(F)(F)F)cc3)CCCC2)CC1
0.48	36.7	465	3.9 (≈ 13.8 µM)	–	–	Cn1ncc2c(Oc3cccc(C(C)(C)C)c3)ncnc21
2.62	7.54	≤ 10.7	56.7 (≈ 215 µM)	–	–	CC(=O)Nc1cccc(OC(=O)N2CCOCC2)c1
–	11.1	488	–	–	–	O=C1OCCN1CCN1CCC(c2cc3ccccc3[nH]2)CC1
1.07	10.7	235	36.2 (≈ 148 µM)	–	–	Cc1nc(NCC(C)(C)c2ccccc2)n(C)n1
0.577	40.5	484	–	–	–	CCc1c(C(=O)NCCc2ccc(N3CCCCC3)cc2)[nH]c2ccc(Cl)cc12
54.9	≤ 4.74	30.9	42.5 (≈ 128 µM)	–	–	Cn1ccc2c(C(=O)Nc3ncn(Cc4cccnc4)n3)cccc21
–	–	–	43.9 (≈ 132 µM)	–	–	O=C(CCCNC(=O)NC1CCCCC1)Nc1cc(C2CC2)n[nH]1
2.42	675	1950	46.9 (≈ 120 µM)	–	–	COc1ccc(CNc2c(-c3ccc(OC)c(OC)c3)nc3cnccn23)cc1
0.372	–	–	0.61 (≈ 1.87 µM)	–	–	Cc1ccc(C(N)=O)c(OCc2c(Cl)ccc3cccnc23)c1
0.867	26.4	299	–	–	–	CCC(=O)NCC[C@@H]1CCc2ccc3c(c21)CCO3
0.685	149	2090	52.2 (≈ 150 µM)	–	–	Cc1cc(C)c2c(c1)CCCN2C(=O)c1ccc(-c2nnc(C)o2)cc1
0.554	44	449	22.5 (≈ 87.8 µM)	–	–	Cc1cnn(Cc2nnc(-c3ccccc3)s2)c1
2.82	≤ 4.74	≤ 10.7	30.7 (≈ 146 µM)	–	–	O=C(CC(=O)N1CCCC1)N1CCCC1
–	24.9	228	–	–	–	CC(=O)N1CCc2c(sc(NC(=O)C(C)C)c2-c2nc3ccccc3s2)C1
–	18.6	148	–	–	–	COc1ccc(Cc2noc(-c3cccc4c3OCC(=O)N4)n2)cc1
17.5	≤ 4.74	85	35.8 (≈ 139 µM)	–	–	O=C(CCCc1nc2ccccc2[nH]1)N1CCCC1
24.6	9.63	49.2	–	–	–	N#Cc1ccc2ncnc(N[C@H]3CC[C@H](N4CCOCC4)CC3)c2c1
–	31.3	593	17.9 (≈ 61.5 µM)	–	–	CCCc1nnc2sc(-c3cc(C(C)C)nn3C)nn12
0.425	54	371	–	–	–	CN(Cc1ccc(CO)cc1)Cc1cc(F)c(F)c(F)c1

MDR1-MDCK efflux ratio	intrinsic clearance, human liver microsomes [mL/min/kg]	intrinsic clearance, rat liver microsomes [mL/min/kg]	aqueous solubility [µg/mL]	fraction unbound, human plasma	fraction unbound, rat plasma	Compound
0.443	479	2170	24.5 (≈ 84.6 µM)	–	–	Clc1ccccc1CNCc1ccc2c(c1)OCCO2
0.513	10.8	70.4	33.3 (≈ 134 µM)	0.0213	0.0497	Cc1c(Cl)ccc2cc3n(c12)[C@@H](C)CNC3=O
1.46	997	2710	–	0.00787	0.0139	CN(C)C(=O)C1(Cc2ccccc2-c2cccc(F)c2)CCN(C(=O)C2CC=CCC2)CC1 (stereo unspecified)
14.5	≤ 4.74	34.3	–	–	–	C[C@H]1Oc2cc(cnc2N)-c2c(nn(C)c2C#N)CN(C)C(=O)c2ccc(F)cc21
82.1	–	–	0.18 (≈ 0.363 µM)	–	–	Cc1c(NC(=O)c2cc(C(N)=O)nc3cc(F)ccc23)c(C(F)(F)F)nn1Cc1ccc(C#N)cc1
0.42	29.4	1680	27.9 (≈ 114 µM)	–	–	CCCN1CCCN(c2ncccc2C#N)CC1
0.737	≤ 4.74	29.4	25.4 (≈ 90.8 µM)	–	–	O=C(O)CNc1nc(-c2ccccc2)nc2ccccc12
0.09	99	149	–	–	–	O=C(Nc1cncc(Cl)c1Cl)c1cccc(-n2cccn2)n1
8.64	103	378	21.2 (≈ 47.3 µM)	–	–	CO[C@H]1CC[C@H](C(=O)NC[C@H]2CC[C@H](c3nnc(-c4nccc5ccccc45)o3)CC2)CC1
3.51	≤ 4.74	–	–	–	–	CCN1CCOC(C(=O)N2CCC(c3cn[nH]c3)CC2)C1 (stereo unspecified)
1.51	8.05	1030	34.1 (≈ 96.4 µM)	–	–	COCCc1nc(-c2cnc(C3CC3)nc2)n(Cc2ccc(F)cc2)n1
0.608	444	2220	–	–	–	COCc1ccccc1COC(=O)c1ccc(C)nc1
16.6	26.6	280	–	–	–	CCOc1cc(CN2CCc3c(N)nc(N4CCCC4)nc3C2)ccc1OC
0.624	15.4	48.8	1.41 (≈ 4.18 µM)	–	–	Cc1sc(-c2ccccn2)nc1-c1ccc(NC(=O)C(C)C)cc1
0.974	75.6	637	52.8 (≈ 156 µM)	0.16	0.184	Cc1ncc(CN2CC[C@@H](Nc3cncc(Cl)n3)[C@@H](C)C2)s1
–	–	–	58 (≈ 266 µM)	–	–	O=C(CC1CCCC1)NCc1ccncc1
–	–	–	65.5 (≈ 177 µM)	–	–	O=C(NCCc1c[nH]c2cccc(C3(O)CCOCC3)c12)c1cccs1
–	15.2	49.6	–	–	–	Cn1ncc2c(NOCc3ccccc3)ncnc21
1.08	32.8	88.9	–	–	–	COCC(=O)Nc1ccc(NC(=O)Cc2ccc(C(F)(F)F)cc2)cc1
11.3	≤ 4.74	1270	–	–	–	CCCN(CCC1=CCCCC1)C(=O)Cc1n[nH]c(=O)[nH]1

Compound	MDR1-MDCK efflux ratio	intrinsic clearance, human liver microsomes [mL/min/kg]	intrinsic clearance, rat liver microsomes [mL/min/kg]	aqueous solubility [µg/mL]	fraction unbound, human plasma	fraction unbound, rat plasma
COC(=O)Nc1nc2ccccc2[nH]1	–	–	–	8.05 (≈ 42.1 µM)	–	–
Cc1ccc(Cn2nc(C)c(C(N)=O)c2Cl)cc1	0.663	7.25	358	24.4 (≈ 92.6 µM)	–	–
